Here are results for six molecules from US20090233999A1, “COMPOSITIONS AND THERAPEUTIC METHODS INVOLVING ISOFLAVONES AND ANALOGUES THEREOF” (NOVOGEN RESEARCH PTY LTD, priority 1999, published 2009).

The test system of one data set is NFκB. Kind of data set: NFκB promoter activity, beta-lactamase reporter THP-1 cells stimulated with TNFα. In kind it is cell-based. The following applies: 30 μM; TNFα-stimulated THP-1 cells. The procedure: The assay utilised a genetically modified THP-1 cell line containing a stably-transfected beta-lactamase reporter gene under control of the NFkB response element and GeneBLAzer® beta-lactamase technology (Invitrogen Corp). The cells respond to stimulation with TNFα, causing activation of the NFκB signaling pathway. Co-incubation of cells with TNFα and test material allows quantitative determination of the ability of test material to inhibit TNFa-stimulated beta-lactamase production. An inflammatory index was calculated as the ratio of beta-lactamase product to beta-lactamase substrate.
THP-1 cells were seeded into wells of a 96-well plate in the presence of RPMI 1640 medium. TNFα was added to each well to give a final concentration of 7.5 ng/ml and dialyzed bovine serum was added. Compounds dissolved in DMSO were then added. Each plate also contained no-cell controls, no-serum controls and serum controls. Plates were incubated for 5 h at 37° C. to allow for NFκB-stimulated beta-lactamase production. LiveBLAzer™ FRET B/G Substrate (CCF4-AM) substrate was then added to assay. Once CCFA-AM enters a cell, it is converted to negatively charged CCF4 by endogenous esterases. Excitation of this substrate at 409 nm leads to efficient FRET between the coumarin and fluorescein moieties, resulting in a green fluorescence detectable at 530 nm. The presence of beta-lactamase leads to cleavage of CCF4 and results in a loss of FRET, resulting in a robust blue fluorescent signal detectable at 460 nm. Thus, activity of beta-lactamase (a marker of NFκB-promoter activity) is measured as a product to substrate ratio (blue/green fluorescence ratio: 460 nm/530 nm).

In the next data set the test system is A10. Description: Proliferation of rat aorta media cell line A10. It is filed as cell-based. The settings on record: 72 h, three days, read-out: VSMC proliferation - IC50 (μM), A10. On the procedure:
(§1) Human umbilical vein smooth muscle cells (HUVSMC), tissue explants from a neonate (HRI— passage 2), were seeded into 96 well plates at 1×10^3 cells per well, and allowed to attach for 24 hours. They were then washed twice and incubated in medium without FBS for 24-48 hours to serum-starve them. Test compounds were prepared in medium without FBS and added to the plates and incubated for one hour. Medium with FBS was added to give a final concentration of 10% and the plates incubated for 5 days until the controls were just confluent. Final analogue concentration was therefore either a series from 150 μM to 1.2 μM, or single concentrations of 10 μM. The difference in absorbance between treated cells and untreated cells was calculated using the formula, test/control*100, to obtain the percentage change caused by the test compound. As well, an IC50 for each compound was calculated.
(§2) The effect of test compounds a rat aortic smooth muscle cell line (A7r5) and another cell line from the media of rat aorta (A10) was examined. The methodology was the same as for HUVSMC, except that the cells were treated with compound for three days.

Another data set in a line: THP-1 cell viability. In kind it is cell-based. The settings on record: human, THP-1 cells, read-out: reduction of viability of the THP-1 cells. On the procedure: MTT is bioreduced by viable cells into a coloured formazan product that is soluble in DMSO. Thus the quantity of formazan product is directly proportional to the number of living cells in culture, and can be measured using a spectrophotometer at 570 nm. These compounds reduce MTT in the absence of cells, resulting in a change in substrate colour from yellow to purple. This activity is dependent on the reducing power of each compound and was measured at 5 concentrations (data not shown). The ability of compounds to reduce MTT was not related to their ability to inhibit NFkB-activity.

In data set [1] the test system is Dark Agouti rats (air pouch). Description: Rat air pouch assay (serum-treated zymozan). The following applies: for Leucocytes in lavage fluid (×10^−7) / Polymorphs in tissue sections (per 100 squares): 4 h; for activity in the rat air pouch assay: in vivo. In kind it is in vivo. The procedure: Air pouches were raised on the dorsum of female Dark Agouti rats, approximately seven weeks of age. To promote the formation of a cellular membrane lining the inside of each pouch, the pouches were maintained by re-inflating on days 2 and 5 after the initial injection of air. On re-inflation, the pouch was first deflated to ensure the needle was positioned correctly, before being re-inflated with 2 mL of sterile air. Using this protocol, the pouches remained inflated until use on day 7, when they were injected with 0.5 ml of either test compound or vehicle control. After 15 min, air pouches were injected with serum-treated zymozan (500 μg). Lavage of the air pouch was performed at 4 h and leucocytes counted, after which the rats were killed, the air pouch excised and processed in formalin for histology. The sections were blinded to the person counting. Using a graticule with 100 squares and the 40× objective, the number of polymorphs were counted in the pouch lining at 10 different and non-adjacent sites. Group sizes were 5-6 rats. Data were analysed for statistical significance within each experiment and using an unpaired t test.

The next data set has as its system A7r5. Description: Proliferation of rat aortic smooth muscle cell line A7r5. The settings on record: A7R5, 72 h, three days, read-out: VSMC proliferation - IC50 (μM), A7r5. It is filed as cell-based. On the procedure: as §1, §2
For the next data set, the system named is eNOS. Kind of data set: eNOS mRNA expression in HAECs (real-time PCR). It is filed as cell-based, human. The settings on record: 10 μM; for increase of eNOS mRNA over vehicle control (average): two more assays. The procedure:
HAECs were grown as described above.

Another data set concerns E-selectin. Kind of data set: TNFα-induced E-selectin expression on HAECs (ELISA). In kind it is cell-based, human. The following applies: 10 μM. The procedure:
Inhibition of TNFα-stimulated endothelial cell activation by compounds was assessed by measuring surface expression of cell adhesion molecules with an ELISA. Human arterial endothelial cells (HAECs) in growth medium (Cell Applications Inc.) were seeded into 96-well plates at a density of 10,000 cells per well. Plates were incubated overnight at 37° C. in a humidified incubator to allow for cells to become confluent. On the morning of the experiment, TNFα (10 μl, 2 ng/ml) was added to each well, which contained 100 μl of medium. Compounds were diluted in DMSO-containing medium (2.5% DMSO) to give a compound concentration of 100 and 300 μM. Compounds were added to wells so that final concentrations were 10 and 30 μM. DMSO-containing medium alone was added to zero concentration control wells. All samples were measured in quadruplicate (4 wells per treatment).
After incubation with compound for 4 hours, medium was removed and cells were probed with either non-specific IgG or specific mouse antibodies against VCAM, ICAM or E-selectin (BD Biosciences—0.1 μg in 100 μL buffered saline with 10% heat-inactivated human serum). Adhesion molecule expression was detected by addition of sheep anti-mouse antibody/horseradish peroxidase conjugate. […] Optical density was measured at 405 nm with an ELISA reader (Titertek Multiscan, Flow Laboratories).

Regarding `COc1ccc(C2=Cc3ccc(O)c(C)c3OC2)cc1OC` [Cpd. 19, 7-Hydroxy-3′,4′-dimethoxy-8-methylisoflav-3-ene], the NFκB promoter activity result in the data set with NFκB is reported as “significantly inhibited”.

As for `COc1cccc(C2=Cc3ccc(O)cc3OC2)c1` [Cpd. 16, 7-Hydroxy-3′-methoxyisoflav-3-ene], the IC50 with A10 came to 31 µM. Moreover, the cytotoxicity at 30 μM in “THP-1 cell viability” was approximately 10%. Also, in data set [1] (1 mM added to air pouch), the “Leucocytes in lavage fluid (×10^−7)” value is given as 0.53 ± 0.35 ×10^−7 and the “Polymorphs in tissue sections (per 100 squares)” value (“Polymorphs … (per 100 squares)” for short) amounted to 14.1 ± 15.8 per 100 squares. Moreover, the “activity in the rat air pouch assay” value in data set [1] was “active”. In the data set on A7r5, the IC50 was determined as 48 µM.

For the molecule `Cc1c(O)ccc2c1OCC(c1cccc(O)c1)=C2` [Cpd. 14, 3′,7-Dihydroxy-8-methylisoflav-3-ene], the IC50 came to 10 µM in the data set with A10 and 33 µM in the data set with A7r5. Further, in the data set with NFκB, the NFκB promoter activity result is recorded as “significantly inhibited”. Moreover, in the data set with eNOS (24 hrs, HAECs), the “expression of eNOS” value was “significantly increased”. The “increase of eNOS mRNA over vehicle control (average)” value in the data set on eNOS is 86%.

For the molecule `Oc1ccc(C2=Cc3ccc(O)c(Br)c3OC2)cc1` [Cpd. 20, 4′,7-Dihydroxy-8-bromoisoflav-3-ene], the NFκB promoter activity entry in the data set with NFκB was “significantly inhibited”. For the same molecule, the “TNFα-induced E-selectin expression” value with E-selectin was “inhibited”. In the data set with A7r5, the IC50 was found to be 33 µM.

For the molecule `Oc1ccc2c(c1)OCC(c1ccc(Br)cc1)=C2` [Cpd. 21, 4′-Bromo-7-hydroxyisoflav-3-ene], the cytotoxicity at 30 μM in “THP-1 cell viability” is approximately 10%.

In the case of `COc1ccc(C2=Cc3ccc(O)cc3OC2)cc1OC` [Cpd. 18, 7-Hydroxy-3′,4′-dimethoxyisoflav-3-ene], in data set [1] (100 μM added to air pouch), the “Leucocytes in lavage fluid (×10^−7)” value is given as 0.88 ± 0.30 ×10^−7 and the “Polymorphs … (per 100 squares)” value is listed as 23.2 ± 10.4 per 100 squares. In data set [1] (1 mM added to air pouch), the “Leucocytes in lavage fluid (×10^−7)” value is given as 0.51 ± 0.33 ×10^−7 and the “Polymorphs … (per 100 squares)” value came to 6.3 ± 1.3 per 100 squares. Moreover, the “activity in the rat air pouch assay” value in data set [1] was “active”. For the same molecule, the NFκB promoter activity entry in the data set with NFκB is reported as “significantly inhibited”. The “TNFα-induced E-selectin expression” value with E-selectin was “inhibited”. Moreover, the IC50 in the data set on A7r5 is 74 µM. Besides, the “increase of eNOS mRNA over vehicle control (average)” value with eNOS is given as 62%.
